Measurements published in patent publication US12479847B2 (DANA-FARBER CANCER INSTITUTE, INC., priority 2019, dated 2025).

Tests used:
Experiment in all cases: KINOMEscan (ScanMAX) kinase profiling
Assay type in all cases: binding
panel of 468 kinases [1] = molecular target: T1, panel of 468 kinases (Homo sapiens, UniProt O14976); conditions: GAK; 1 μM; read-out: % control
T1 construct: purchased KINOMEscan (ScanMAX) service
T1 sequence (O14976 1-1311): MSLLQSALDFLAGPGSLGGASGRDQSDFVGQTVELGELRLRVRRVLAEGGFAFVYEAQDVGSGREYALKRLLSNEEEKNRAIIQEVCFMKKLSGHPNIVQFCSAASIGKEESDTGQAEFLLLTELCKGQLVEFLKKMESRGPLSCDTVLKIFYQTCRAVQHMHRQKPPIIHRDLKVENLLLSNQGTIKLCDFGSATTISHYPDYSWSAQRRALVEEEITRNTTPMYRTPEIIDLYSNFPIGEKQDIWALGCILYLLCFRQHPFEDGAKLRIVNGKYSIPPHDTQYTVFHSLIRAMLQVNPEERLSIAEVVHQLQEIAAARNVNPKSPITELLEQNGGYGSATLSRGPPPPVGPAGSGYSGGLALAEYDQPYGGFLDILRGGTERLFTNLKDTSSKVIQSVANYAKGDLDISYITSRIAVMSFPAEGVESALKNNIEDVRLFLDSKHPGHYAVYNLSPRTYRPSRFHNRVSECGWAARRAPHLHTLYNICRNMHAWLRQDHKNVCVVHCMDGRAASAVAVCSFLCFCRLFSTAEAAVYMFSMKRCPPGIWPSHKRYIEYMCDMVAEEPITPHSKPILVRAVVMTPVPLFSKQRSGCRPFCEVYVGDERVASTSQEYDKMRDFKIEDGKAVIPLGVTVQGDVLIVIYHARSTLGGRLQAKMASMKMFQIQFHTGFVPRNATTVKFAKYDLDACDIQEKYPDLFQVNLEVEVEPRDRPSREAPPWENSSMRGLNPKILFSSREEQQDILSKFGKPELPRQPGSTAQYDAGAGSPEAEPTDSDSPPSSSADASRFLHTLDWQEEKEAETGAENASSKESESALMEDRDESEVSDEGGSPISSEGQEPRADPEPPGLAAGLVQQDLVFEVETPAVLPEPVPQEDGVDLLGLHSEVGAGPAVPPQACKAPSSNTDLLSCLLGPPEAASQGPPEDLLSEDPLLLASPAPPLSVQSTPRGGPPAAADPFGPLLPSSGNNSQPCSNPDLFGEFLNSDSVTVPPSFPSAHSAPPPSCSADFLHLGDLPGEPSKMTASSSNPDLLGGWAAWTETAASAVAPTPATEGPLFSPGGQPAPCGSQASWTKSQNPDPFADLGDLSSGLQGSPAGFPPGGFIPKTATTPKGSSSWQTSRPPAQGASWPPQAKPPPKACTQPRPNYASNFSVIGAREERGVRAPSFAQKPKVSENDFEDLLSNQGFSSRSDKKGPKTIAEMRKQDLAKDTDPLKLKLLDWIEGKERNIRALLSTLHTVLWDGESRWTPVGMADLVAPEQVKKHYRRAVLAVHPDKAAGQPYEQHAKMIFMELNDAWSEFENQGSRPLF

panel of 468 kinases [2] = molecular target: T2, panel of 468 kinases (Homo sapiens, UniProt P10721, D816H); conditions: KIT(D816H); 1 μM; read-out: % control
T2 construct: purchased KINOMEscan (ScanMAX) service
T2 sequence (P10721 26-976 D816H): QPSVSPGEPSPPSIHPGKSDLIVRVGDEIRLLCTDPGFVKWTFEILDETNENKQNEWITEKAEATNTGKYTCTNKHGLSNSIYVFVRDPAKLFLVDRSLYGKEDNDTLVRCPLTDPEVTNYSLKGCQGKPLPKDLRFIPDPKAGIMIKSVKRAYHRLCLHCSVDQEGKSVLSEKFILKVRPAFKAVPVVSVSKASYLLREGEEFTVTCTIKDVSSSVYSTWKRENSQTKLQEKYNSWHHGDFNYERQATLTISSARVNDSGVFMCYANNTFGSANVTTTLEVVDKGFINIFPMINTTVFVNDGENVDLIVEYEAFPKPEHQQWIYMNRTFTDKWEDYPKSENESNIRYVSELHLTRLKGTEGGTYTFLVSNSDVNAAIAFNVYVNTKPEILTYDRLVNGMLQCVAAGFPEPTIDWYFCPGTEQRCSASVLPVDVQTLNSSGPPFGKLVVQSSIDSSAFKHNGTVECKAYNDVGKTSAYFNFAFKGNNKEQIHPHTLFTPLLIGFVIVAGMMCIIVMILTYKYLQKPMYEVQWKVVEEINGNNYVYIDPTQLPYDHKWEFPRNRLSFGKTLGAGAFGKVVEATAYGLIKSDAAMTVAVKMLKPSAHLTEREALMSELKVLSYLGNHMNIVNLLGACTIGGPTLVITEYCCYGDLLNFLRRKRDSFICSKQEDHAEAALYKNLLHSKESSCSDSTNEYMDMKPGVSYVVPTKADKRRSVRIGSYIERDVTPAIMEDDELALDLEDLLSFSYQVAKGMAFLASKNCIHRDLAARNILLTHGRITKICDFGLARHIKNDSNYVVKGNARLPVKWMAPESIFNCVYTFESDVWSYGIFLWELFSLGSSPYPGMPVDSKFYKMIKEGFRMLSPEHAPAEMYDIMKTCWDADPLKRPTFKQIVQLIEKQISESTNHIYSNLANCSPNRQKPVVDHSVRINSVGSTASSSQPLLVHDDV

panel of 468 kinases [3] = molecular target: T3, panel of 468 kinases (Homo sapiens, UniProt P27448); conditions: MARK3; 1 μM; read-out: % control
T3 construct: purchased KINOMEscan (ScanMAX) service
T3 sequence (P27448 whole entry): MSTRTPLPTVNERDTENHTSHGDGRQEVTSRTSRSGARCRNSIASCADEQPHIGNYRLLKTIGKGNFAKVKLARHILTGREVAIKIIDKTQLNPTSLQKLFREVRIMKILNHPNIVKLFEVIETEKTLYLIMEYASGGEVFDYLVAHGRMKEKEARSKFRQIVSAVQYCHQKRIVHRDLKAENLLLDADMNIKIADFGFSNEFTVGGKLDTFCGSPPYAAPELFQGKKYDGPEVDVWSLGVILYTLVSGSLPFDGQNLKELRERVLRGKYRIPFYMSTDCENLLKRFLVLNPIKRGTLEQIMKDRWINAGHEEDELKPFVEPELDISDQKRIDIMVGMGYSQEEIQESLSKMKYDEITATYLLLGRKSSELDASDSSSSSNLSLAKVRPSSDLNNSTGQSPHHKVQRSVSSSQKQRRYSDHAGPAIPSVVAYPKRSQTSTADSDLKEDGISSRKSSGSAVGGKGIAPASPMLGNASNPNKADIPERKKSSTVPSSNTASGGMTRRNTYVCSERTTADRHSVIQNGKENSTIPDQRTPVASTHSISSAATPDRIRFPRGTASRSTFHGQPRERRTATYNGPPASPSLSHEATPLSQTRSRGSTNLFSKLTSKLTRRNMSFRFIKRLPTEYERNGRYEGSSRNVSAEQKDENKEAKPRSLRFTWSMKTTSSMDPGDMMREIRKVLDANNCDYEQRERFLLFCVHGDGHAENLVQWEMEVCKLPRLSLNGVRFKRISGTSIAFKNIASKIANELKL

panel of 468 kinases [4] = molecular target: T4, panel of 468 kinases (Homo sapiens, UniProt P49760); conditions: CLK2; 1 μM; read-out: % control
T4 construct: purchased KINOMEscan (ScanMAX) service
T4 sequence (P49760 whole entry): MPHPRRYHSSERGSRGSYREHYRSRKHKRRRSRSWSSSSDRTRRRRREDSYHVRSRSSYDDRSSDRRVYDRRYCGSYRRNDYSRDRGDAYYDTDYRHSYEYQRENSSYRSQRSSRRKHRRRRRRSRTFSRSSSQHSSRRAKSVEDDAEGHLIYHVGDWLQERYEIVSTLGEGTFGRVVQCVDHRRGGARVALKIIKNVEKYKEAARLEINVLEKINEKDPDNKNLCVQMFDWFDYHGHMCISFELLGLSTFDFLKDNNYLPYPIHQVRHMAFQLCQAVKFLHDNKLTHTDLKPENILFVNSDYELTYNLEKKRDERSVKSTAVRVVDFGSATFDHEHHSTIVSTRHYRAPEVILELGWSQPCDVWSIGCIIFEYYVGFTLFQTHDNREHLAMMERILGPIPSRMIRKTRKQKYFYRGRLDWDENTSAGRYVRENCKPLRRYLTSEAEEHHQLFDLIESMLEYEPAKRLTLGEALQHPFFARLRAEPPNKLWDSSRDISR

panel of 468 kinases [5] = molecular target: T5, panel of 468 kinases (Homo sapiens, UniProt Q02763); conditions: TIE2; 1 μM; read-out: % control
T5 construct: purchased KINOMEscan (ScanMAX) service
T5 sequence (Q02763 23-1124): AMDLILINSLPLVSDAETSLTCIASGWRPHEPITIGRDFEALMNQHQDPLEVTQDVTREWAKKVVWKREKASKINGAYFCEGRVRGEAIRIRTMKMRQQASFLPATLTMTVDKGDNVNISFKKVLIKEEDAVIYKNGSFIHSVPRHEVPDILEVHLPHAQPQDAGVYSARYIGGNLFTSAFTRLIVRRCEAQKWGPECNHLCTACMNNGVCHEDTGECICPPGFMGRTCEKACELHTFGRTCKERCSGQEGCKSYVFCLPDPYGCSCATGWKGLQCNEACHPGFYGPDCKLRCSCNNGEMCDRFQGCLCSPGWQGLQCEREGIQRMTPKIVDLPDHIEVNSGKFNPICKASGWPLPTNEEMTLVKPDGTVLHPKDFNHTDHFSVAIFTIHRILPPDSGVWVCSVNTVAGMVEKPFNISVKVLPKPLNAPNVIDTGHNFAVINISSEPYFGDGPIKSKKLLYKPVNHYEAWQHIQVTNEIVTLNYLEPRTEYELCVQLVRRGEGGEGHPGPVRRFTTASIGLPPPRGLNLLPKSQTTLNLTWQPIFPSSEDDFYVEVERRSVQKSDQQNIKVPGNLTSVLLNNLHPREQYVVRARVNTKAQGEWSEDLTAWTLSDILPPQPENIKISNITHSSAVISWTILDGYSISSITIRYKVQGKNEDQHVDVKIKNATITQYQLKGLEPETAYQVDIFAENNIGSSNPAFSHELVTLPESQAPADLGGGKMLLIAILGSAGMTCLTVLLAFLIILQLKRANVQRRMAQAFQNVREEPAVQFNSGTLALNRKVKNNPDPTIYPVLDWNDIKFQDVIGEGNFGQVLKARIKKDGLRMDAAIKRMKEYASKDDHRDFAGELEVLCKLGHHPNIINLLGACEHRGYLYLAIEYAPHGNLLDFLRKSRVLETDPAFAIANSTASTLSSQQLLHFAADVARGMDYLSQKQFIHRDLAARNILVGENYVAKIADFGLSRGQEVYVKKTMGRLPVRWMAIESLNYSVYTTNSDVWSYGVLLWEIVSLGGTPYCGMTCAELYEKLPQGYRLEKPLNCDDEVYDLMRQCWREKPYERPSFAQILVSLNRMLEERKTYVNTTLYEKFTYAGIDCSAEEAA

panel of 468 kinases [6] = molecular target: T6, panel of 468 kinases (Homo sapiens, UniProt Q8NEV4); conditions: MYO3A; 1 μM; read-out: % control
T6 construct: purchased KINOMEscan (ScanMAX) service
T6 sequence (Q8NEV4 whole entry): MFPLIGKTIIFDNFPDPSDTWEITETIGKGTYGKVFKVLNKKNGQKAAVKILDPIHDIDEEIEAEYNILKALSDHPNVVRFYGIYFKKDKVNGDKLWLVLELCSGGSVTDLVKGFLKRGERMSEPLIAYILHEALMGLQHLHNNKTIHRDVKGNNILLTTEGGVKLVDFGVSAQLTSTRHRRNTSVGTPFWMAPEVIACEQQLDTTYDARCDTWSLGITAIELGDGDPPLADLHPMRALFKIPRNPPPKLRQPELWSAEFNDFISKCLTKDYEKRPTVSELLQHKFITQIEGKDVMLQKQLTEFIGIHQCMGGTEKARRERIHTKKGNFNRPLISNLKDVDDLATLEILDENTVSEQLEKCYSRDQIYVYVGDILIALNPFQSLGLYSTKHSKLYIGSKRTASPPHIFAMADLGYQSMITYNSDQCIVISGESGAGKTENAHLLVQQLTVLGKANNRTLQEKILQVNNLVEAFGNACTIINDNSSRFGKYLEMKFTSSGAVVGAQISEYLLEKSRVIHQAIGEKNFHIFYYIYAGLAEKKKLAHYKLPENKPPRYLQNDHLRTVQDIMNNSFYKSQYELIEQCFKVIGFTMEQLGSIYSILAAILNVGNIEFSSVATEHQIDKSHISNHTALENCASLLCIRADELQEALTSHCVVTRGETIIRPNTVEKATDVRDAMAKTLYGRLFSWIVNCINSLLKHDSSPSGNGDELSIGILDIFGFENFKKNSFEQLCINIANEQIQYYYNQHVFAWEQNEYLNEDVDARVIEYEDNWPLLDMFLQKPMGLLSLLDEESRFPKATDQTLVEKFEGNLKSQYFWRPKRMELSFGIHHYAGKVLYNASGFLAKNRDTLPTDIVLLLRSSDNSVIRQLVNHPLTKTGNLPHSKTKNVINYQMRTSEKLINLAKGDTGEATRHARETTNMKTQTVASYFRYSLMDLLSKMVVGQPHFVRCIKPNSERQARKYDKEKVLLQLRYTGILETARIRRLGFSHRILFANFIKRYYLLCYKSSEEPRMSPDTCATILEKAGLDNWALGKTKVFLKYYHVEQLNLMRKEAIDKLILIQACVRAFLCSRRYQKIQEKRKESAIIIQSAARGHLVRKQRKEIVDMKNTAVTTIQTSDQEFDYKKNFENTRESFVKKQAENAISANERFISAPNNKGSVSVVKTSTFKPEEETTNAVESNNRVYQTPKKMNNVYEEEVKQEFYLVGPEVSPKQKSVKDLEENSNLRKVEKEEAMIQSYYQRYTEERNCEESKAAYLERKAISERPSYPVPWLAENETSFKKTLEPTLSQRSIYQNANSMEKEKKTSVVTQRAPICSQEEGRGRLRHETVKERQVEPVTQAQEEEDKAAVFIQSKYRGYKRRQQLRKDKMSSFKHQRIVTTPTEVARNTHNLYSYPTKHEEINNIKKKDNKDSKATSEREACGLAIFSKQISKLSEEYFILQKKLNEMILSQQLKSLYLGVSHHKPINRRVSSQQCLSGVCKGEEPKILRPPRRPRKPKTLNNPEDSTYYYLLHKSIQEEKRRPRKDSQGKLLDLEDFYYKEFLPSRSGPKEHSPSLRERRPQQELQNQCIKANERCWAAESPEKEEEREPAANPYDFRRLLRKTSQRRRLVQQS

panel of 468 kinases [7] = molecular target: T7, panel of 468 kinases (Homo sapiens, UniProt Q96NX5); conditions: CAMK1G; 1 μM; read-out: % control
T7 construct: purchased KINOMEscan (ScanMAX) service

| Structure (SMILES) | remaining binding at 1 µM (panel of 468 kinases [1]) [%] | remaining binding at 1 µM (panel of 468 kinases [2]) [%] | remaining binding at 1 µM (panel of 468 kinases [3]) [%] | remaining binding at 1 µM (panel of 468 kinases [4]) [%] | remaining binding at 1 µM (panel of 468 kinases [5]) [%] | remaining binding at 1 µM (panel of 468 kinases [6]) [%] | remaining binding at 1 µM (panel of 468 kinases [7]) [%] |
| --- | --- | --- | --- | --- | --- | --- | --- |
| CNc1nc(Nc2ccc(C(=O)N3CCC(N4CCOCC4)CC3)c3c2OCO3)nc2[nH]cc(Cl)c12 [Compound 75, (7-((5-chloro-4-(methylamino)-7H-pyrrolo[2,3-d]pyrimidin-2-yl)amino)benzo[d][1,3]dioxol-4-yl)(4-morpholinopiperidin-1-yl)methanone] | 0.55 | 99 | 100 | 21 | 94 | 98 | 73 |
| CNc1nc(Nc2ccc(S(=O)(=O)N3CCC(N4CCOCC4)CC3)cc2OC)nc2[nH]cc(Cl)c12 [Compound 12, 5-chloro-N2-(2-methoxy-4-((4-morpholinopiperidin-1-yl)sulfonyl)phenyl)-N4-methyl-7H-pyrrolo[2,3-d]pyrimidine-2,4-diamine] | 3.8 | 100 | 100 | 55 | 94 | 100 | 96 |
| CNc1nc(Nc2ccc(P3(=O)CCN(C4CCOCC4)CC3)cc2OC)nc2[nH]cc(Cl)c12 [Compound 77, 4-(4-((5-chloro-4-(methylamino)-7H-pyrrolo[2,3-d]pyrimidin-2-yl)amino)-3-methoxyphenyl)-1-(tetrahydro-2H-pyran-4-yl)-1,4-azaphosphinane 4-oxide] | 0.9 | 93 | 100 | 28 | 100 | 62 | 65 |
